Test results taken from publication PMC5498157 (Chemical research in toxicology, 2017).
Where two headings read alike, the source gives them in different places.

Assays:
AlkB [1] = biological target: T1, AlkB (Escherichia coli, UniProt P05050); experiment: Inhibition constant; format: biochemical
ALKBH3 [2] = biological target: T2, ALKBH3 (Homo sapiens, UniProt Q96Q83); experiment: Inhibition constant; format: biochemical; conditions: versus αKG, 37 °C
T2 sequence (Q96Q83 1-286): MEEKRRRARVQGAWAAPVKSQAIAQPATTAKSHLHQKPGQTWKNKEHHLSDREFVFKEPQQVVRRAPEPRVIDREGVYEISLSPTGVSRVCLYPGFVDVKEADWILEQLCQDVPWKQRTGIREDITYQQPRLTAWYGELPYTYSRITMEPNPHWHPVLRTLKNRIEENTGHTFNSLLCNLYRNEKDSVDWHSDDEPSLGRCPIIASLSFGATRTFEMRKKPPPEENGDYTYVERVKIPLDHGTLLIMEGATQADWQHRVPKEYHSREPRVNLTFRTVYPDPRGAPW

ALKBH2 and ALKBH3 = format: biochemical, human; conditions: L-2HG:αKG = 28:1, αKG 100 µM; range over both enzymes and all substrates
ALKBH2 [3] = biological target: T3, ALKBH2 (Homo sapiens, UniProt Q6NS38); experiment: Inhibition of ALKBH2 repair at tumor-relevant 2HG:αKG ratios; format: biochemical; conditions: L-2HG:αKG = 28:1, αKG 100 µM; range over all substrates
T3 sequence (Q6NS38 1-261): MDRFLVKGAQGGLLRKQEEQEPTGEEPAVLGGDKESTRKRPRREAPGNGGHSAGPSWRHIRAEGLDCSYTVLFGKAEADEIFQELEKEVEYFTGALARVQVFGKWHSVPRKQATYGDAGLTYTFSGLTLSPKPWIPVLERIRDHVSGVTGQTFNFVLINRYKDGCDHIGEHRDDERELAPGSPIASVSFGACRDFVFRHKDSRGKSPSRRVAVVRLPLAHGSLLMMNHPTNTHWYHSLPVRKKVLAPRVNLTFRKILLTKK

ALKBH3 [4] = biological target: T2, ALKBH3; experiment: Inhibition of ALKBH3 repair at tumor-relevant 2HG:αKG ratios; format: biochemical; conditions: L-2HG:αKG = 28:1, αKG 100 µM; range over all substrates
ALKBH2 [5] = biological target: T3, ALKBH2; experiment: Inhibition constant; format: biochemical; conditions: for Ki: versus αKG, 37 °C
ALKBH2 [6] = biological target: T3, ALKBH2; conditions: 37 °C
AlkB [7] = biological target: T1, AlkB; conditions: 37 °C
ALKBH3 [8] = biological target: T2, ALKBH3; conditions: 37 °C
[9] = AlkB, ds-m1A, versus αKG, 37 °C
[10] = AlkB, ds-m3C, versus αKG, 37 °C
[11] = AlkB, ss-m1A, versus αKG, 37 °C
[12] = AlkB, ss-m3C, versus αKG, 37 °C

T1 sequence (P05050 whole entry): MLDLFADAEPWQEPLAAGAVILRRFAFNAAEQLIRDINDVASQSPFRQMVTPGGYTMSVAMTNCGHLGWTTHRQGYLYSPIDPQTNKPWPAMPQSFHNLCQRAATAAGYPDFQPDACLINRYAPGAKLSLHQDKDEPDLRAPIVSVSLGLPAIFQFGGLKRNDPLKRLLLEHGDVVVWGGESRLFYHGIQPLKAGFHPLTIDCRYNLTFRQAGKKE

O=C(O)CC[C@@H](O)C(=O)O [D-2HG, D-2-hydroxyglutarate]
Ki (AlkB [1]; [9]): 529 ± 126 µM
Ki (AlkB [1]; [10]): 230 ± 55 µM
Ki (AlkB [1]; [11]): 571 ± 166 µM
Ki (AlkB [1]; [12]): 447 ± 113 µM
Ki (ALKBH3 [2]; ALKBH3, ss-m1A): 545 ± 77 µM
Ki (ALKBH3 [2]; ALKBH3, ss-m3C): 490 ± 46 µM

O=C(O)CC[C@H](O)C(=O)O [L-2HG, L-2-hydroxyglutarate]
inhibition of ALKBH2 and ALKBH3 repair activities (ALKBH2 and ALKBH3): 31–58%
inhibition of ALKBH2 activity (ALKBH2 [3]): 48–58%
Ki (AlkB [1]; [9]): 598 ± 173 µM
Ki (AlkB [1]; [10]): 308 ± 108 µM
Ki (AlkB [1]; [11]): 337 ± 99 µM
Ki (AlkB [1]; [12]): 276 ± 111 µM
inhibition of ALKBH3 activity (ALKBH3 [4]): 31–40%
Ki (ALKBH3 [2]; ALKBH3, ss-m1A): 185 ± 23 µM
Ki (ALKBH3 [2]; ALKBH3, ss-m3C): 228 ± 16 µM

O=C(O)CNC(=O)C(=O)O [N-OG, N-oxalylglycine, reference compound]
Ki (AlkB [1]): 2 ± 1.3 µM
Ki (AlkB [1]; Ki, AlkB, ds-m3C, versus αKG, 37 °C): 0.2 µM
Ki (AlkB [1]; Ki, AlkB, ss-m1A, versus αKG, 37 °C): 0.4 ± 0.1 µM
Ki (AlkB [1]; Ki, AlkB, ss-m3C, versus αKG, 37 °C): 0.4 ± 0.1 µM
Ki (ALKBH3 [2]; Ki, ALKBH3, ss-m1A): 27 ± 4 µM
Ki (ALKBH3 [2]; Ki, ALKBH3, ss-m3C): 37 ± 3 µM
Ki (ALKBH2 [5]; ALKBH2, ds-m1A): 16 ± 5 µM
Ki (ALKBH2 [5]; ALKBH2, ds-m3C): 7 ± 2 µM
Ki (ALKBH2 [5]; ALKBH2, ss-m1A): 30 ± 7 µM
Ki (ALKBH2 [5]; ALKBH2, ss-m3C): 40 ± 7 µM
potency relative to D- and L-2HG (ALKBH2 [5]; from Ki values, all repair reactions): about 10 times

O=C(O)CCC(=O)C(=O)O [αKG, α-ketoglutarate]
Km (ALKBH2 [6]; ALKBH2, ds-m1A): 7.3 ± 0.9 µM
kcat (ALKBH2 [6]; ALKBH2, ds-m1A): 0.0417 ± 0.0017 s⁻¹
Km (ALKBH2 [6]; ALKBH2, ds-m3C): 1.9 ± 0.4 µM
kcat (ALKBH2 [6]; ALKBH2, ds-m3C): 0.0433 ± 0.0017 s⁻¹
Km (ALKBH2 [6]; ALKBH2, ss-m1A): 4.1 ± 0.9 µM
kcat (ALKBH2 [6]; ALKBH2, ss-m1A): 0.0183 ± 0.0017 s⁻¹
Km (ALKBH2 [6]; ALKBH2, ss-m3C): 1.4 ± 0.2 µM
kcat (ALKBH2 [6]; ALKBH2, ss-m3C): 0.0283 ± 0.0017 s⁻¹
Km (AlkB [7]; ds-m1A): 12.7 ± 1.3 µM
kcat (AlkB [7]; ds-m1A): 0.08 ± 0.0033 s⁻¹
Km (AlkB [7]; ds-m3C): 10.8 ± 1.9 µM
kcat (AlkB [7]; ds-m3C): 0.137 ± 0.0067 s⁻¹
Km (AlkB [7]; ss-m1A): 7.1 ± 1.1 µM
kcat (AlkB [7]; ss-m1A): 0.07 ± 0.0033 s⁻¹
Km (AlkB [7]; ss-m3C): 19.9 ± 1.3 µM
kcat (AlkB [7]; ss-m3C): 0.408 ± 0.012 s⁻¹
Km (ALKBH3 [8]; ALKBH3, ss-m1A): 2.3 ± 0.1 µM
kcat (ALKBH3 [8]; ALKBH3, ss-m1A): 0.02 ± 0 s⁻¹
Km (ALKBH3 [8]; ALKBH3, ss-m3C): 1.9 ± 0.4 µM
kcat (ALKBH3 [8]; ALKBH3, ss-m3C): 0.0283 ± 0 s⁻¹
